According to patent US9617225B2 (VIROSTATICS SRL, priority 2012, dated 2017):
pIC50: −log10 of the molar value. Like-named read-outs stand apart in the source and are kept apart here.

Experiments:
Primary T cells [1] = test: Cytotoxicity, viability by flow cytometry; type: cell-based
Protocol: Primary T cells are cultured and treated with different concentrations of the test compound. Viability is analysed by measuring through flow cytometry based techniques the percentage of viable cells, compared to untreated control=100%).

[2] = system: laboratory strain of HIV-1; test: Antiviral Activity Against HIV (AV), p24 in infected activated primary T cells; type: cell-based; conditions: for antiviral and antiproliferative activity and cytotoxicity profile: summary in words; for pIC50: read-out: AV50, Table 5
Protocol: Antiviral Activity Against HIV (AV)
Activated primary T cells are infected with a laboratory strain of HIV-1, then cultured and exposed to different concentrations of the test compounds. HIV replication is analysed by measuring the viral protein p24 and expressed as percentage of untreated control. Inhibition of viral replication (AV) is then calculated (AV=100 minus the % p24 compared to control, AV of control=0%). Inhibitory concentration 50% for antiviral activity (AV50) is calculated.

[3] = biological target: human CDK9/CyclinT kinase complex (Homo sapiens (Human), UniProt P50750); test: In Vitro CDK9/CyclinT Assay (IMAP fluorescent polarization); type: biochemical
Sequence of human CDK9/CyclinT kinase complex (P50750 whole entry): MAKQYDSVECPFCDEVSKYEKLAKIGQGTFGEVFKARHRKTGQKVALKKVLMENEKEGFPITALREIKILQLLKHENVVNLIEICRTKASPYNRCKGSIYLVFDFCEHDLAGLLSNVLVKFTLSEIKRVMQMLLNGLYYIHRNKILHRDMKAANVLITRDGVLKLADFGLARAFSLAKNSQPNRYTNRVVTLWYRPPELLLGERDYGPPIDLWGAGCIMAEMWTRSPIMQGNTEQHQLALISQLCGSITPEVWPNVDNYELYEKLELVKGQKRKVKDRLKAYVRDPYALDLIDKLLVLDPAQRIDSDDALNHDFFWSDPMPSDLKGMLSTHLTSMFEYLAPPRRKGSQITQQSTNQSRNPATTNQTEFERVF
Sequence of human CDK9/CyclinT kinase complex (O60563 whole entry partner): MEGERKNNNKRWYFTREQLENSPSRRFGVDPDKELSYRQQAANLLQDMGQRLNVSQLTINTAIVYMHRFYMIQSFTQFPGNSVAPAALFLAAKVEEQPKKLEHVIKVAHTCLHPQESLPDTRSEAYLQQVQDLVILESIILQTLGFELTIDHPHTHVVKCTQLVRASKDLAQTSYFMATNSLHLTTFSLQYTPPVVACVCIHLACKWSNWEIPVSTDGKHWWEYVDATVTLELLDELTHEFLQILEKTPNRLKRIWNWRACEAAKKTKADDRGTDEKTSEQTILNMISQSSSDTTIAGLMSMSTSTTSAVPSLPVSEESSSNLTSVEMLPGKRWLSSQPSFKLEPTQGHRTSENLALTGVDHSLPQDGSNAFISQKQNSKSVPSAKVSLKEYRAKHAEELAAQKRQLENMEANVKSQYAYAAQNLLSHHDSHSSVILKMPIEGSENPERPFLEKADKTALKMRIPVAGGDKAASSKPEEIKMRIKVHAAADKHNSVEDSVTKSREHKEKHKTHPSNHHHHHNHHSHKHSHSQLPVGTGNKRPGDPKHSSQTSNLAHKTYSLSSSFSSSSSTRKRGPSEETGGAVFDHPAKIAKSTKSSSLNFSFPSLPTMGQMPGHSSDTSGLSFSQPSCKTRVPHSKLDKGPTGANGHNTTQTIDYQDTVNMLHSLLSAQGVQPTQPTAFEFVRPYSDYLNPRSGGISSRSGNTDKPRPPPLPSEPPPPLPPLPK
Procedure, shortened: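 Phosphorylation of 400 nM TAMRA-Rbtide (15-mer retinoblastoma-derived peptide) by 5 nM CDK9/CyclinT with 12 μM ATP (=Kmapp) in 20 mM MOPS pH 7, 1 mM DTT, 10 mM MgCl2, 0.01% Tween 20. Reaction run 1 hour at room temperature, stopped with IMAP beads; read by fluorescence polarization.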

Primary T cells [4] = test: Antiproliferative Activity (AP), mitotic index by flow cytometry; type: cell-based; conditions: T-cell, read-out: AP50 (μM)
Protocol: Antiproliferative Activity (AP)
Primary T cells are cultured and exposed to different concentrations of the test compounds. Cell proliferation is analysed by measuring mitotic index (ie the number of cell divisions a population of cells undergoes) through flow cytometry based techniques. Mitotic index is expressed as percentage of untreated control. Inhibition of cell proliferation (AP) is then calculated (AP=100 minus % mitotic index compared to control, AP of control=0%). Inhibitory concentration 50% for antiproliferative capacity (AP50) is calculated.

## CCOc1cc(F)ccc1-c1cc(Nc2ccc(OC)c(N)c2)ncn1 [Example 73, N^1-[6-(2-Ethoxy-4-fluoro-phenyl)-pyrimidin-4-yl]-4-methoxy-benzene-1,3-diamine]
Primary T cells [1]
  TD50: 6 µM
[2]
  antiviral and antiproliferative activity and cytotoxicity profile: good antiviral and antiproliferative activity and a good cytotoxicity profile
[3]; Table 1
  pIC50: > 6.00

## CNS(=O)(=O)Nc1cc(Nc2cc(-c3ccccc3OC)ncn2)ccc1OC [Example 10, (2-Methoxy-5-(6-(2-methoxyphenyl)pyrimidin-4-ylamino)phenyl)(methylsulfamoyl)amine]
Primary T cells [1]
  TD50: 3 µM
[2]
  antiviral and antiproliferative activity and cytotoxicity profile: good antiviral and antiproliferative activity and a good cytotoxicity profile
[3]; Table 1
  pIC50: > 7.00

## COc1cc(Nc2cc(-c3ccccc3OC)ncn2)ccc1N [Example 59, 2-Methoxy-N^4-[6-(2-methoxy-phenyl)-pyrimidin-4-yl]-benzene-1,4-diamine]
Primary T cells [1]
  TD50: >2 µM
[2]
  pIC50: < 5.70
[3]; Table 1
  pIC50: > 6.00
[3]; Table 5
  pIC50: > 6.00

## COc1ccc(Nc2cc(-c3ccccc3OC)ncn2)cc1Cn1cnc2ccccc21 [Example 31, N-(3-((1H-Benzo[d]imidazol-1-yl)methyl)-4-methoxyphenyl)-6-(2-methoxyphenyl)pyrimidin-4-amine]
Primary T cells [1]
  TD50: 1.8 µM
[2]
  antiviral and antiproliferative activity and cytotoxicity profile: good antiviral and antiproliferative activity and a good cytotoxicity profile
[3]
  pIC50: > 7.00

## CCOc1ccc(Nc2cc(-c3ccc(F)cc3OC)ncn2)cc1C(N)=O [Example 112, 2-Ethoxy-5-[6-(4-fluoro-2-methoxy-phenyl)-pyrimidin-4-ylamino]-benzamide]
Primary T cells [1]
  TD50: 10 µM
[2]
  antiviral and antiproliferative activity and cytotoxicity profile: good antiviral and antiproliferative activity and a good cytotoxicity profile
[3]
  pIC50: > 6.00

## COc1ccc(Nc2cc(-c3ccccc3OC)ncn2)cc1C(N)=O [Example 45, 2-methoxy-5-(6-(2-methoxyphenyl)pyrimidin-4-ylamino)benzamide]
Primary T cells [1]
  TD50: 15 µM
[2]
  antiviral and antiproliferative activity and cytotoxicity profile: good antiviral and antiproliferative activity and a good cytotoxicity profile
[3]
  pIC50: > 7.00

## COc1ccc(Nc2cc(-c3ccc(F)cc3OC)ncn2)cc1N [Example 64]
Primary T cells [1]
  TD50: 5 µM
[2]
  antiviral and antiproliferative activity and cytotoxicity profile: good antiviral and antiproliferative activity and a good cytotoxicity profile
[3]; Table 1
  pIC50: > 6.00
[3]; Table 5
  pIC50: > 6.00

## COc1cc(F)c(Nc2cc(-c3ccc(F)cc3OC)ncn2)cc1C(N)=O [Example 146, 4-Fluoro-5-[6-(4-fluoro-2-methoxy-phenyl)-pyrimidin-4-ylamino]-2-methoxy-benzamide]
Primary T cells [1]
  TD50: 10 µM
[2]
  antiviral and antiproliferative activity and cytotoxicity profile: good antiviral and antiproliferative activity and a good cytotoxicity profile
[3]; Table 1
  pIC50: > 6.00

## COc1ccc(Nc2cc(-c3ccccc3OC)ncn2)cc1N [Example 41, 4-Methoxy-N1-(6-(2-methoxyphenyl)pyrimidin-4-yl)benzene-1,3-diamine]
Primary T cells [1]
  TD50: 8.5 µM
[2]
  antiviral and antiproliferative activity and cytotoxicity profile: good antiviral and antiproliferative activity and a good cytotoxicity profile
[3]
  pIC50: > 6.00

## CCOc1ccccc1-c1cc(Nc2ccc(OC)c(N)c2)ncn1 [Example 62, N^1-[6-(2-Ethoxy-phenyl)-pyrimidin-4-yl]-4-methoxy-benzene-1,3-diamine]
Primary T cells [1]
  TD50: 4 µM
[2]
  antiviral and antiproliferative activity and cytotoxicity profile: good antiviral and antiproliferative activity and a good cytotoxicity profile
[3]; Table 1
  pIC50: > 6.00

## CCOc1cc(F)ccc1-c1cc(Nc2cc(C(N)=O)c(OC)cc2F)ncn1 [Example 147, 5-[6-(2-Ethoxy-4-fluoro-phenyl)-pyrimidin-4-ylamino]-4-fluoro-2-methoxy-benzamide]
Primary T cells [1]
  TD50: 15 µM
[2]
  antiviral and antiproliferative activity and cytotoxicity profile: good antiviral and antiproliferative activity and a good cytotoxicity profile
[3]
  pIC50: > 6.00

## COc1ccc(Nc2cc(-c3ccc(F)cc3OC)ncn2)cc1O [Example 123, 5-[6-(4-Fluoro-2-methoxy-phenyl)-pyrimidin-4-ylamino]-2-methoxy-phenol]
Primary T cells [1]
  TD50: 7 µM
[2]
  antiviral and antiproliferative activity and cytotoxicity profile: good antiviral and antiproliferative activity and a good cytotoxicity profile
[3]; Table 1
  pIC50: > 6.00

## COc1ccc(Nc2cc(-c3ccccc3OC)ncn2)cc1CN1C(=O)c2ccccc2C1=O [Example 3, 2-(2-Methoxy-5-(6-(2-methoxyphenyl)pyrimidin-4-ylamino)benzyl)isoindoline-1,3-dione]
Primary T cells [1]; Table 4, toxic dose 50%, viable cells
  TD50: >5 µM
Primary T cells [1]; Table 5
  TD50: >5 µM
[2]
  pIC50: < 6.00
[3]
  pIC50: > 6.00

## CNCc1cc(Nc2cc(-c3ccccc3OC)ncn2)ccc1OC [Example 37, N-(4-Methoxy-3-((methylamino)methyl)phenyl)-6-(2-methoxyphenyl)pyrimidin-4-amine]
Primary T cells [1]
  TD50: 2 µM
Primary T cells [4]
  IC50: 2 µM
[2]; Human immunodeficiency virus 1, T-cell, read-out: AV50 (μM)
  IC50: > 1.5 µM
[3]; Table 1
  pIC50: > 7.00

## CCOc1ccc(F)cc1-c1cc(Nc2ccc(OC)c(C(N)=O)c2)ncn1 [Example 131, 5-[6-(2-Ethoxy-5-fluoro-phenyl)-pyrimidin-4-ylamino]-2-methoxy-benzamide]
Primary T cells [1]
  TD50: 2 µM
[2]
  antiviral and antiproliferative activity and cytotoxicity profile: good antiviral and antiproliferative activity and a good cytotoxicity profile
[3]; Table 1
  pIC50: > 6.00

## CCOc1ccc(Nc2cc(-c3ccccc3OC)ncn2)cc1C(N)=O [Example 111, 2-Ethoxy-5-[6-(2-methoxy-phenyl)-pyrimidin-4-ylamino]-benzamide]
Primary T cells [1]
  TD50: 12 µM
[2]
  antiviral and antiproliferative activity and cytotoxicity profile: good antiviral and antiproliferative activity and a good cytotoxicity profile
[3]; Table 1
  pIC50: > 6.00
